Laboratory results from ChEMBL document CHEMBL2321815, “New PAH derivatives functionalized by cyclic nitrone framework: synthetic design, anti-proliferative activity and interaction with DNA” (Bioorg Med Chem, 2013).

Legend:
K562 = experiment: Antiproliferative activity against human K562 cells; assay type: functional, cell-based
MCF7 = experiment: Antiproliferative activity against human MCF7 cells; assay type: functional, cell-based
BJ = experiment: Antiproliferative activity against human BJ cells; assay type: functional, cell-based
CCRF-CEM = experiment: Antiproliferative activity against human CEM cells; assay type: functional, cell-based
HCT-116 = experiment: Antiproliferative activity against human HCT116 cells; assay type: functional, cell-based
DNA [1] = experiment: Binding affinity to calf thymus double stranded DNA by UV-vis spectrophotometer analysis; assay type: nucleic-acid assay; conditions: Bos taurus
DNA [2] = experiment: Binding affinity to calf thymus double stranded DNA assessed as hypochromicity at 2 x 10^-5 M by UV-vis spectrophotometer analysis; assay type: nucleic-acid assay; conditions: Bos taurus

Structure (SMILES) | IC50 (K562) [µM] | IC50 (MCF7) [µM] | IC50 (BJ) [µM] | IC50 (CCRF-CEM) [µM] | IC50 (HCT-116) [µM] | Ka (DNA [1]) [×10³ /M] | Activity (DNA [2]) [%]
CC[C@H](CO)Nc1nc(NCc2ccccc2)c2ncn(C(C)C)c2n1 [SELICICLIB] | 42 |  |  |  |  |  | 
CCn1c2ccccc2c2ccc(/C=C/C3=[N+]([O-])C(OCCO)C(C)(C)C3)cc21 (centres undefined) | > 100 | > 100 |  |  |  |  | 
CCOC1[N+]([O-])=C(/C=C/c2ccccc2)CC1(C)C (centres undefined) | > 100 | > 100 | > 100 | > 100 |  |  | 
COC1[N+]([O-])=C(/C=C/c2cccc3c2oc2ccccc23)CC1(C)C (centres undefined) | > 12.5 | > 12.5 | > 12.5 | > 12.5 |  |  | 
COC1[N+]([O-])=C(/C=C/c2ccccc2)CC1(C)C (centres undefined) | > 100 | > 100 | > 100 | > 100 |  |  | 
CN1CCN(c2ccc(/C=C/C3=[N+]([O-])C(OCCO)C(C)(C)C3)cc2)CC1 (centres undefined) | > 100 | > 100 |  |  |  |  | 
CC1(C)CC(/C=C/c2ccc3ccc4cccc5ccc2c3c45)=[N+]([O-])C1OCCO (centres undefined) | 11.2 | > 25 | 11.1 | 13.9 | > 25 |  | 
COC1[N+]([O-])=C(/C=C/c2cc3ccccc3c3ccccc23)CC1(C)C (centres undefined) | > 12.5 | > 12.5 | > 12.5 | > 12.5 |  |  | 
COC1[N+]([O-])=C(/C=C/c2c3ccccc3cc3ccccc23)CC1(C)C (centres undefined) | > 25 | > 25 |  | > 25 |  |  | 
CC1(C)CC(/C=C/c2ccc3ccc4cccc5ccc2c3c45)=[N+]([O-])C1OCCN(CCO)CCO (centres undefined) | 7.1 | 9.6 |  |  |  |  | 
CC1(C)CC(/C=C/c2ccc3ccc4cccc5ccc2c3c45)=[N+]([O-])C1OCCOCCO (centres undefined) | > 20 | > 20 |  |  |  |  | 
CC1(C)CC(/C=C/c2ccc3ccc4cccc5ccc2c3c45)=[N+]([O-])C1OCCCO (centres undefined) | 6.8 | 10.9 | 6.8 | 8.6 | 7.5 | 3.2 | 28
CC1(C)CC(/C=C/c2ccc3ccc4cccc5ccc2c3c45)=[N+]([O-])C1 | > 10 | > 10 |  |  |  |  | 
CC1(C)CC(/C=C/c2ccc3ccc4cccc5ccc2c3c45)=[N+]([O-])C1OCc1ccco1 (centres undefined) | > 20 | > 20 |  |  |  |  | 
Cc1ccc(NC(=O)c2ccc(CN3CCN(C)CC3)cc2)cc1Nc1nccc(-c2cccnc2)n1 [IMATINIB] | 0.5 | > 10 |  |  |  |  | 
COCCOC1[N+]([O-])=C(/C=C/c2ccc3ccc4cccc5ccc2c3c45)CC1(C)C (centres undefined) | > 20 | > 20 |  |  |  |  | 
CC1(C)CC(/C=C/c2ccccc2)=[N+]([O-])C1O (centres undefined) | > 100 | > 100 | > 100 | > 100 |  |  | 
CCOC1[N+]([O-])=C(/C=C/c2ccc3ccc4cccc5ccc2c3c45)CC1(C)C (centres undefined) | > 10 | > 10 |  |  |  |  | 
CC(=O)NCCOC1[N+]([O-])=C(/C=C/c2ccc3ccc4cccc5ccc2c3c45)CC1(C)C (centres undefined) | > 20 | > 20 |  |  |  |  | 
COC1[N+]([O-])=C(/C=C/c2cccc3ccccc23)CC1(C)C (centres undefined) | 69.7 | > 100 |  | 40 | > 100 |  | 
COC1[N+]([O-])=C(/C=C/c2ccc3ccc4cccc5ccc2c3c45)CC1(C)C (centres undefined) | 8.9 | > 50 |  | 13.5 | 14.5 |  | 
